What was measured:
[1] = system: MCF-7; test: Cell viability (MTT) assay, 24-h IC50, MCF-7; assay type: cell-based, human; conditions: Homo sapiens, MCF7, 24 h, read-out: 24-h IC50
[2] = system: MDA-MB 231 human breast cancer cells; test: Cell proliferation assay (BrdU incorporation) in MDA-MB231; assay type: cell-based; conditions: MDA-MB231, each compound at its IC50 concentration
Description: (§1) Cell proliferation assay: To determine cell proliferation, we measured the incorporation of 5-bromo-2′-deoxyuridine (BrdU) into newly synthesized cellular DNA, following the manufacture's instructions (BD Biosciences, San Jose, Calif.).
As summarized in Table 2 below, in MDA-MB231 cells, all six compounds, each used at its IC50 concentration, a) inhibited cell proliferation between 6% and 50% compared to controls; b) induced both early and late apoptosis, as well as necrosis; and c) inhibited the G1 to S cell cycle phase transition. In this Table, the values for proliferation are the percentage of the corresponding control values. Those for apoptosis and necrosis refer to the percentage of cells in each category with respect to the entire cell population, and are to be compared to the control (vehicle only-treated) cells (uppermost row).

[3] = system: SW480 and HT-29 human colon cancer cells; test: Cell kinetics of colon cancer cells treated with phospho-sulindac I; assay type: cell-based
Protocol: as §1
Annexin V and propidium iodide (PI) staining: Cells were seeded at a density of 1×10^5 cells/well and treated for 24 h with various concentrations of each compound or equivalent volumes of DMSO. Briefly, after incubation with the test compounds, cells were trypsinized and stained with Annexin V-FITC (Invitrogen) and PI (0.5 μg/ml). Following incubation at room temperature for 15 min in the dark, annexin V-FITC and PI fluorescence intensities were analyzed by FACScaliber (BD Bioscience). Annexin V (+)/PI (−) cells are in early apoptosis, annexin V (+)/PI (+) cells are in late apoptosis (secondary necrosis), and annexin V (−)/ PI (+) cells are necrotic cells.
Determination of cell cycle phase distribution (PI incorporation assay): Cells were seeded in culture plates and treated for 24 h with various concentrations of each compound or equivalent volumes of DMSO. After treatment, cells were trypsinized and fixed in 70% ethanol for 1 h on ice, stained with PI (50 μg/ml) and RNase A (4 U/ml) for 30 min and subjected to flow cytometric analysis for the determination of their distribution in the cell cycle phases.

[4] = system: APC^Min/+ mice; test: APC Min/+ mice study of intestinal tumors; assay type: in vivo; conditions: 50 mg/kg/day gavage, 4 weeks
Description: APC^Min/+ mice study: Min mice have a truncating mutation in the Apc gene that predisposes them to the development of gastrointestinal tumors in the small intestine and colon (Lipkin M, Yang K, Edelmann W, et al. Preclinical mouse models for cancer chemoprevention studies. Ann N Y Acad Sci 1999; 889:14-9.). In many important ways, this model system represents a useful (and extensively utilized) experimental system that recapitulates the relevant steps of colon carcinogenesis.
Eleven week-old male C57BL/6J APC^Min/+ mice divided into […] groups of 10 mice/group were treated for 4 weeks via gavage administration as follows: group 1 was treated with vehicle (corn oil); and group 2 was treated with phospho-sulindac I 50 mg/kg/day.

[5] = system: SW480; test: DFMO / phospho-sulindac I synergy, cell growth at 48 h, SW480; assay type: cell-based, human; conditions: SW480, 48 h; DFMO 5 mM, phospho-sulindac I 40 μM
Protocol: (§2) A—Left panel: Cell viability was determined in HT-29 (full bars) and SW-480 (empty bars) cells after 48 h of incubation with 5 mM DFMO, 40 μM phospho-sulindac (P-S) or simultaneous combination of DFMO and P-S. Data are expressed as percentage of control cells (cells incubated only with DMSO). […] Right panel: In this isobologram the additivity line connects the IC50 value of each compound used alone. A and B represent two different dose pairs of each compound (their respective concentrations are shown in parentheses). The location of both A and B below the additivity line signifies synergy. […] DNA content was determined from propidium iodide (PI) fluorescence. C—Apoptosis and necrosis were determined by combined staining with annexin V and PI and determining fluorescence intensity. The percentages of apoptotic cells were determined using the dual staining with annexin V and propidium iodide and are indicated in each quadrant: left bottom quadrant, viable cells (annexin V-negative/PI-negative); right bottom quadrant, early apoptotic cells (annexin V-positive/PI-negative); right upper quadrant, late apoptotic cells (annexin V-positive/PI-positive); left upper quadrant, necrotic cells (annexin V-negative, PI-positive). […]

[6] = system: colon cancer cells; test: Apoptosis (annexin V/PI), DFMO and phospho-sulindac I, 48 h; assay type: cell-based, human; conditions: 48 h of incubation; concentrations below IC50s
Protocol: as §2

[7] = system: SW480 cells; test: Polyamine levels in SW480 cells; assay type: cell-based, human
Description: Further evidence of the synergy between the two compounds was provided by their effect on polyamine levels. Conventional sulindac is known to reduce polyamine levels in colon cancer cells (Yerushalmi et al. Role of polyamines in arginine-dependent colon carcinogenesis in Apc(Min) (/+) mice. Mol Carcinog 2006; 45(10):764-73.; Choi et al. Combination of 5-fluorouracil and N1,N11-diethylnorspermine markedly activates spermidine/spermine N1-acetyltransferase expression, depletes polyamines, and synergistically induces apoptosis in colon carcinoma cells. J Biol Chem 2005; 280(5):3295-304; and Basuroy and Gerner. Emerging concepts in targeting the polyamine metabolic pathway in epithelial cancer chemoprevention and chemotherapy. J Biochem (Tokyo) 2006; 139(1):27-33).

[8] = 24 h at its 24-h IC50, vs untreated controls

For `CCOP(=O)(OCC)OCCCCOC(=O)CC1=C(C)/C(=C/c2ccc([S+](C)[O-])cc2)c2ccc(F)cc21` (stereo not shown) [Phospho-sulindac I], the IC50 [1] was 62 µM, the “Proliferation (% control)” value [2] was 52 % control and the “effect on G1 to S cell cycle phase transition” value ([3]; 24 h at its 24-h IC50) was “blocked the transition form the G1 to the S cell cycle phase”. The “induced apoptosis (early and late subtypes combined)” value [3, 8] was 201%, the induced necrosis [3, 8] was 1350% and the inhibited cell proliferation [3, 8] was 72%. The “necrosis in treated cells” value ([3]; 24 h at its 24-h IC50, controls 0.2%) was 2.9%, the “apoptosis (early and late combined) in treated cells” value ([3]; 24 h at its 24-h IC50, controls 6.6%) was 20% and the “cell proliferation in treated cells” value ([3]; 24 h at its 24-h IC50, controls 43%) was 12%. For the same molecule, the “signs of toxicity in Min mice” value [4] was “without any overt signs of toxicity”, the “decreased the number of tumors in the small intestine” value ([4]; vs vehicle, p<0.002) was 57.2% and the “reduction of tumors in the colon” value ([4]; vs vehicle, p<0.02) was 61.8%. For the same molecule, the “number of colon tumors” value ([4]; vehicle 1.6±0.8) was 0.6±0.5, the “number of intestinal tumors” value ([4]; vehicle 33.6±8.7) was 19.4±12.0 and the “reduction in cell number” value [5] was 45%. For the same molecule, the “percentage of apoptotic cells” value [6] was 16.5%, the level of putrescine [7] was 91 % of control values and the level of spermidine [7] was 34 % of control values. The level of spermine [7] was 9 % of control values.
